From ChEMBL document CHEMBL5465560, “Selectivity Literature for EUbOPEN Chemogenomic Library” (2024) come the findings set out here.

Structures are written as SMILES.

Assay [1] concerns the target Serine/threonine-protein kinase/endoribonuclease IRE1 (Homo sapiens) (UniProt O75460). The assay can be described thus: Selectivity interaction (Ambit KINOMEscan and KiNATiv profiling in Jurkat cells) EUB0000090b ERN1. The note with it: at 1 µM. In kind it is cell-based.
The target of assay [2] is Mitogen-activated protein kinase 11 (Homo sapiens) (UniProt Q15759). As to conditions: at 10 µM.
The target in assay [3] is Serine/threonine-protein kinase 16 (Homo sapiens, UniProt O75716). The note with it: at 10 µM.
Assay [4] has as its target Fibroblast growth factor receptor 4 (Homo sapiens, UniProt P22455). The experiment in a line: Selectivity interaction (KinomeScan (DiscoverX)) EUB0000092b FGFR4. As to conditions: at 10 µM.
In assay [5] the target is Homeodomain-interacting protein kinase 1 (Homo sapiens, UniProt Q86Z02). The experiment in a line: Selectivity interaction (KinomeScan (DiscoverX)) EUB0000092b HIPK1. The note with it: at 10 µM.
Assay [6] deals with T1, Ephrin type-A receptor 3 (Homo sapiens) (UniProt P29320).
T1 sequence (whole entry): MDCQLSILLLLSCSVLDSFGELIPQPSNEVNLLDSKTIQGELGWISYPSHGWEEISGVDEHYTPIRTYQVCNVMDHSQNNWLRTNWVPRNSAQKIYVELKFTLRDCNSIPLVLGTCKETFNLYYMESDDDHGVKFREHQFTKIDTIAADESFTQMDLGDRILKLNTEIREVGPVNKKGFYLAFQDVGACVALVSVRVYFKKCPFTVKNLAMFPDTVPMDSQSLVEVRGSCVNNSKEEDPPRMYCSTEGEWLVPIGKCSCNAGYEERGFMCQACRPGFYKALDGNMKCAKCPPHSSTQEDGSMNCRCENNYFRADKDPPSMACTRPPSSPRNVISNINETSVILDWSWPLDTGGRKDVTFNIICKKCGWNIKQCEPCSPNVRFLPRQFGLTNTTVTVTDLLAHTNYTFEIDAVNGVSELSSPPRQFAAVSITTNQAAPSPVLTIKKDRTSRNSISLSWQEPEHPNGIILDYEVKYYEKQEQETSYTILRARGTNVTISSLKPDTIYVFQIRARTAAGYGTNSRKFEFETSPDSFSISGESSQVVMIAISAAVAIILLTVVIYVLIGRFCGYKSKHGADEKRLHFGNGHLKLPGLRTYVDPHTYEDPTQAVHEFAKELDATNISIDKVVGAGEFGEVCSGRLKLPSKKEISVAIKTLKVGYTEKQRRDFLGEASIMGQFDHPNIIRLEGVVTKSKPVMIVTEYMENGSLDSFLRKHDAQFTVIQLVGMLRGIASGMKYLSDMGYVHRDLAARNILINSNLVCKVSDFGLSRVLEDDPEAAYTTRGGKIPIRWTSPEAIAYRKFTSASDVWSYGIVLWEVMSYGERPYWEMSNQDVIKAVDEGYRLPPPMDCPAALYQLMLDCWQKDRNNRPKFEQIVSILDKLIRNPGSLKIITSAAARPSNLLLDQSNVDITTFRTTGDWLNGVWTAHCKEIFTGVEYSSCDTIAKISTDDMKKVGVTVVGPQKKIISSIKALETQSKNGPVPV
The experiment in a line: Selectivity interaction (KinomeScan (DiscoverX)) EUB0000666a EPHA3. The note with it: at 10 µM.

Assay [7] addresses Glycogen synthase kinase-3 beta (Homo sapiens, UniProt P49841). The experiment in a line: Selectivity interaction (Rxn Biology Kinase assay) EUB0001632a GSK3B. As to conditions: at 10 µM.
Assay [8] addresses Hepatocyte growth factor receptor (Homo sapiens, UniProt P08581). The experiment in a line: Selectivity interaction (Kinase panel (Enzyme activity assay)) EUB0000612a MET.
Assay [9] has as its target Receptor tyrosine-protein kinase erbB-2 (Homo sapiens, UniProt P04626). The experiment in a line: Selectivity interaction (KinomeScan (DiscoverX)) EUB0000229b ERBB2. As to conditions: at 10 µM.
Assay [10] has as its target T2, Serine/threonine-protein kinase 17B (Homo sapiens) (UniProt O94768).
T2 sequence (whole entry): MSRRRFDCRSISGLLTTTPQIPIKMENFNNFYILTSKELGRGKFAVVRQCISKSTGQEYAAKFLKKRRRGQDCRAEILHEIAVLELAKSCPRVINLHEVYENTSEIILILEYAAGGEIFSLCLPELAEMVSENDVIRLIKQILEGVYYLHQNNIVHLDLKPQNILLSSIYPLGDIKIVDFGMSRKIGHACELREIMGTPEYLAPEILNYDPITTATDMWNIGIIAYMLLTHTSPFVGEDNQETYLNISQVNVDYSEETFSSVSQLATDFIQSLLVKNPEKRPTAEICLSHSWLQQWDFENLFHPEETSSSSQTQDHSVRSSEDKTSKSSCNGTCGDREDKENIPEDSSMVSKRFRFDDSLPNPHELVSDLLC
The experiment in a line: Selectivity interaction (KinomeScan (DiscoverX)) EUB0000618a STK17B. As to conditions: at 10 µM.

Receptor tyrosine-protein kinase erbB-2, sequence (P04626 whole entry): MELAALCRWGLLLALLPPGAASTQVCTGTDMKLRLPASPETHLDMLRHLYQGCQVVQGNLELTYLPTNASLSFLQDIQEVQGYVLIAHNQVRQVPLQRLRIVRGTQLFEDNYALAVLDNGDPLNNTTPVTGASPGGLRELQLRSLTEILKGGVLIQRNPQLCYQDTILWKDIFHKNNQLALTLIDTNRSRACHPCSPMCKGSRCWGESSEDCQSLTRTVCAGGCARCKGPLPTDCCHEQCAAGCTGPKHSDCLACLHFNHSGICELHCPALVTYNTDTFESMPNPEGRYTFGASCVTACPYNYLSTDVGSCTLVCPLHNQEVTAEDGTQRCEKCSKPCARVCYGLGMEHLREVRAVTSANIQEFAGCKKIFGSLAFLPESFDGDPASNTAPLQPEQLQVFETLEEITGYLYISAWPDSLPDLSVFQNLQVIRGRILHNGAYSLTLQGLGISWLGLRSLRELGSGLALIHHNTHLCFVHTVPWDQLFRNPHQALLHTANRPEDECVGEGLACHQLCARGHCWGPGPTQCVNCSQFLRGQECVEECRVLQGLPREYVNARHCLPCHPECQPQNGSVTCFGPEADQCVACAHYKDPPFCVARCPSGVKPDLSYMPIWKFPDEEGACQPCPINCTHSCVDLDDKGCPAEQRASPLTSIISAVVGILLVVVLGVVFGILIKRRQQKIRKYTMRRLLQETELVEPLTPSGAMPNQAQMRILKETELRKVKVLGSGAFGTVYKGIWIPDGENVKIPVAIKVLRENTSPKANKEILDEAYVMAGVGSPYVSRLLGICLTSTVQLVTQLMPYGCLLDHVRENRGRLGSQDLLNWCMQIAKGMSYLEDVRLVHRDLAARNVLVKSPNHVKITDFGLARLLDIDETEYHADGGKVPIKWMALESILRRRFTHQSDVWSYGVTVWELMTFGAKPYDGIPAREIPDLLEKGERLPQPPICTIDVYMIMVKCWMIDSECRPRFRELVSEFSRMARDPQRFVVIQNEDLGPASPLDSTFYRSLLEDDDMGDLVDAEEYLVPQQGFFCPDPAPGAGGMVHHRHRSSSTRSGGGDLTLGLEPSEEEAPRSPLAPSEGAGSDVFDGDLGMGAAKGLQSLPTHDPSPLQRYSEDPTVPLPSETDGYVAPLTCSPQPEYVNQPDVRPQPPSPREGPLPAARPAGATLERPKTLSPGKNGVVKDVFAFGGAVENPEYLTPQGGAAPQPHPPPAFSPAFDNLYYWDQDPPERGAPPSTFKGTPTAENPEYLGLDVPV
Homeodomain-interacting protein kinase 1, sequence (Q86Z02 whole entry, looked up): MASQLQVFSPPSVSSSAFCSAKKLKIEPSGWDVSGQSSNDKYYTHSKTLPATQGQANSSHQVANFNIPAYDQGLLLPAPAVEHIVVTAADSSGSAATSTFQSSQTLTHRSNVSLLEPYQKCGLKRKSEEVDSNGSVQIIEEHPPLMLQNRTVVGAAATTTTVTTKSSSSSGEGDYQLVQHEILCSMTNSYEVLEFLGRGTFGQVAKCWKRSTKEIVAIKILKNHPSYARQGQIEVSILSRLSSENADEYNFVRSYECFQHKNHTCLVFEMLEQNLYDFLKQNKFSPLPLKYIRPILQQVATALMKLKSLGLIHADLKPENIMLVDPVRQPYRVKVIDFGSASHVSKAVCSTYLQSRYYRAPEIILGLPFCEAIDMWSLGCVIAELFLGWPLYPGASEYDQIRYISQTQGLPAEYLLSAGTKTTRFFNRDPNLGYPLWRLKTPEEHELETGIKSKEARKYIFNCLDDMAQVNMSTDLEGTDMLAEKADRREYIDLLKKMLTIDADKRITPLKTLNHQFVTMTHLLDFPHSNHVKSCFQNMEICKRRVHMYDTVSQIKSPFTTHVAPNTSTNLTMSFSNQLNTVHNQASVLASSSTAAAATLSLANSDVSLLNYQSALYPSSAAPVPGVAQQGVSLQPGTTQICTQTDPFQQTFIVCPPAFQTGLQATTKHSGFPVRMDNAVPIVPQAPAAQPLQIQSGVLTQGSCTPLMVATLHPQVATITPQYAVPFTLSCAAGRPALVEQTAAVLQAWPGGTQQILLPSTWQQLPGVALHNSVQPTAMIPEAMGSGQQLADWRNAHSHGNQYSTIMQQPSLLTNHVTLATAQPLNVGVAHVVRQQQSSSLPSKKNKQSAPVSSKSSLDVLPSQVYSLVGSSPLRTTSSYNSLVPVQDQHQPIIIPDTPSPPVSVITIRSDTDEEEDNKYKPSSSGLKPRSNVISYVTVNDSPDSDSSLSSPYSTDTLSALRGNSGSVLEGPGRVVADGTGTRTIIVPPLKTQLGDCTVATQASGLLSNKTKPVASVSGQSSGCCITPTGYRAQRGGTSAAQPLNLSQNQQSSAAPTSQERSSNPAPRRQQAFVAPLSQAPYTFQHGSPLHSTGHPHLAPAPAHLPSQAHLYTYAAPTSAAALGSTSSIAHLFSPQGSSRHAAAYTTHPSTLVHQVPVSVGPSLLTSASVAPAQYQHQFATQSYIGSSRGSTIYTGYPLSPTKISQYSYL
Glycogen synthase kinase-3 beta, sequence (P49841 whole entry, looked up): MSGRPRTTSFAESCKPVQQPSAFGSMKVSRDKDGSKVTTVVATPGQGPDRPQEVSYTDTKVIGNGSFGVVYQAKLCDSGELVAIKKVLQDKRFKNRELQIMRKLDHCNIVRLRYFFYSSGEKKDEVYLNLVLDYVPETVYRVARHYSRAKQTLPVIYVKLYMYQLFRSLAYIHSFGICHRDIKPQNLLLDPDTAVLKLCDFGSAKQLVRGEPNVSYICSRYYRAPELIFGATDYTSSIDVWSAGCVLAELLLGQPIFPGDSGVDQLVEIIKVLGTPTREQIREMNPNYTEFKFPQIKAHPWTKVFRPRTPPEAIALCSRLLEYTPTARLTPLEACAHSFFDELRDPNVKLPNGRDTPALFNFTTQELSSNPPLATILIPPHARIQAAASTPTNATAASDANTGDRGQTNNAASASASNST
Serine/threonine-protein kinase/endoribonuclease IRE1 (Homo sapiens), sequence (O75460 19-977 limits assumed): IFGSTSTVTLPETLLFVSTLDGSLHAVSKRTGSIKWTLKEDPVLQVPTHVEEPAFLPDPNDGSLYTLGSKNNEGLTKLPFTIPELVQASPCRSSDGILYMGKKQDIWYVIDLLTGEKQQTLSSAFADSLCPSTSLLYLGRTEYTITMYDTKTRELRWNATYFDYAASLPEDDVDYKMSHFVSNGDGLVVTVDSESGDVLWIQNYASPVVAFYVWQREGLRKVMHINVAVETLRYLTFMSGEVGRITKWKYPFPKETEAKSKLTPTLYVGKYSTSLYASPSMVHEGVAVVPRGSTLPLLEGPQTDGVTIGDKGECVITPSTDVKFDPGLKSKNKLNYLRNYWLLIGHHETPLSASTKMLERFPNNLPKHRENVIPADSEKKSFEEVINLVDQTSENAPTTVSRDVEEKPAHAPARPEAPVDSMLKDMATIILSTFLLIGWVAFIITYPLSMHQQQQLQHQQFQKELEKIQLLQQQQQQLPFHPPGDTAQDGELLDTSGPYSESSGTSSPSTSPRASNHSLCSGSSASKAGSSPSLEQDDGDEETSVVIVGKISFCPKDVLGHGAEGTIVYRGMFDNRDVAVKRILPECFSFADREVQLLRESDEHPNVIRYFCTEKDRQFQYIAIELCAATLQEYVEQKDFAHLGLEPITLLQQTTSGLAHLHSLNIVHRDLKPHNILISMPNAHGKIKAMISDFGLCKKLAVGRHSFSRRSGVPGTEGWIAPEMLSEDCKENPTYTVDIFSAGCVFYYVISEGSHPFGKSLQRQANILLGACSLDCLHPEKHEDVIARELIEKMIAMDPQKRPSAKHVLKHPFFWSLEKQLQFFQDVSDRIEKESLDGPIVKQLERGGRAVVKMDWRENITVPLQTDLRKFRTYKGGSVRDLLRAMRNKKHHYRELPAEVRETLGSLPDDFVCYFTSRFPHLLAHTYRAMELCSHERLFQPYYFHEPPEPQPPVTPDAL
Fibroblast growth factor receptor 4, sequence (P22455 22-802 limits assumed): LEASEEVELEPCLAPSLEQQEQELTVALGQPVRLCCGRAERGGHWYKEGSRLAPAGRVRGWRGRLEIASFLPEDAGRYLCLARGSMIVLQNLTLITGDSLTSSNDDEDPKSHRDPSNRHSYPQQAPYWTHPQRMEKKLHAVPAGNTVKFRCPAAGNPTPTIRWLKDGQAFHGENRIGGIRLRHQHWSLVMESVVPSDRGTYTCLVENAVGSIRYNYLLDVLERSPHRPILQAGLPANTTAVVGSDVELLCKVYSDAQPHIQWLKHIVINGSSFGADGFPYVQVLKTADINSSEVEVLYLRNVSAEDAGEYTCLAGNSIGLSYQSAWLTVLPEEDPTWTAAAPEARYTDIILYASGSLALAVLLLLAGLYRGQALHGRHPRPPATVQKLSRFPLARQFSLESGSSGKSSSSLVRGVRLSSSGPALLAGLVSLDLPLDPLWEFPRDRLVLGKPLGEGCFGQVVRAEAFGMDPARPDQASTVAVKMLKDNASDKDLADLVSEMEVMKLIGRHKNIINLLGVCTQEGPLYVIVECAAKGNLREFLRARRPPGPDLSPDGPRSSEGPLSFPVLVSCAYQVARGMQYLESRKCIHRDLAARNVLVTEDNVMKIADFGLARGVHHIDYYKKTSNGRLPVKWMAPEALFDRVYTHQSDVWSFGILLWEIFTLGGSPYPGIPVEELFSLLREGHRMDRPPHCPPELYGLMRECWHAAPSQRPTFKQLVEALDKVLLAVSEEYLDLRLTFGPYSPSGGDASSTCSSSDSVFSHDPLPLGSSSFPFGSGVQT
Serine/threonine-protein kinase 16, sequence (O75716 whole entry): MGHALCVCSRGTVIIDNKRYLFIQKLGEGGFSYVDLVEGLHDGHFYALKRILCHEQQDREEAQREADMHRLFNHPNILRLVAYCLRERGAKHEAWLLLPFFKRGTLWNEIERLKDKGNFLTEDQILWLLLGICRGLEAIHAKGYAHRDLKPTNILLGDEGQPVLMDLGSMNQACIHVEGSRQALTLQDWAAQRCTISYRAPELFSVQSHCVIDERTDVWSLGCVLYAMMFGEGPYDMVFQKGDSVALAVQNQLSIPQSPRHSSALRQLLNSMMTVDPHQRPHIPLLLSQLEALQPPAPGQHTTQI

For `CN(C)C/C=C/C(=O)Nc1ccc(C(=O)N2CCCC(Nc3ncc(Cl)c(-c4c[nH]c5ccccc45)n3)C2)cc1` (stereo not given), in [1], the % of control amounted to 92%.

In the case of `CCN(CC)CCCCNc1ncc2cc(-c3cc(OC)cc(OC)c3)c(NC(=O)NC(C)(C)C)nc2n1`, the % of control in assay [2] and in [3] was 100% throughout.

For `CCC(=O)N1CCN(c2ccc(-n3c(=O)ccc4cnc5ccc(-c6cnc7ccccc7c6)cc5c43)cc2C(F)(F)F)CC1`, the % of control in assay [4] amounted to 21%; in assay [5] it was 63%.

`O=C(NOC[C@H](O)CO)c1ccc(F)c(F)c1Nc1ccc(I)cc1F` gave a % of control in assay [6] of 100%.

Turning to `Cn1cc(-n2cnc3c(NCc4nc5cc(Cl)c(Cl)cc5[nH]4)nc(N4CCOCC4)nc32)cn1`, in assay [7], the % of inhibition is 96.5%.

For `CCc1cccc(CC)c1NC(=O)c1nn(C)c2c1CCc1cnc(Nc3ccc(C(=O)NC4CCN(C)CC4)cc3OC(F)(F)F)nc1-2`, the half-maximal inhibitory concentration (IC50) (as a rule, the concentration at which inhibition is half-maximal) in [8] was > 10 µM.

In the case of `COc1cc(N(C)c2ccnc3ccc(C(F)(F)F)cc23)cc(OC)c1OC`, the % binding in assay [9] was 62%.

`O[C@H]1CC[C@H](Nc2ncc3nc(Nc4c(F)cc(F)cc4F)n([C@H]4CCOC4)c3n2)CC1` had a % of control in assay [10] of 70%.
